Experimental data taken from patent publication US20120034608A1, “MICRORNA AS A BIOMARKER OF PANCREATIC ISLET BETA-CELL ENGAGEMENT” (Merck Sharp & Dohme Corp., priority 2009, published 2012).

What was measured:
INS-1 832/3 cells [1] = assay: release of miRNAs from INS-1 832/3 cells into culture media (TAQMAN, normalized to U6 RNA); type: cell-based, rat; conditions: 50 nM GLP-1, after 4 or 8 hours
Experimental: INS1 832/3 cells were treated with 50 nM GLP-1 (7-37) amide (BACHEM) in RPMI 1640 with 10% FBS and 11 mM glucose in 24-well plates for 4, 8, 16, and 24 hours. Cell culture media was collected, 100 μL out of 1 mL media per sample was used for RNA extraction following the protocol for plasma samples (Mitchell et al., Proc. Natl. Acad. Sci. USA 105: 10513-10518). Briefly, RNA isolation was performed using the mirVana PARIS kit following the manufacturer's protocol (Ambion), except that samples were extracted twice with acid phenol-chloroform. The average of about 80 μL of eluate was recovered from each extraction. A fixed volume of 1.67 μL of the RNA eluate was used as input into the reverse transcription reaction. RNA was reverse transcribed using the TAQMAN miRNA Reverse Transcription Kit and miRNA-specific stem-loop primers in 5 μL volume (Applied BioSystems). About 2.25 μL of diluted PCR product (combining 5 μL RT product with 28.9 μL H2O) was added to 2.75 μL of PCR assay reagents to generate a PCR of 5 μL of total volume. The relative miRNA levels were determined by real-time RT-PCR using the ABI PRISM 7900 Sequence Detection System from Applied Biosystems (Foster City, Calif.) through 40 cycles as described in Example 2. TAQMAN reagents were purchased from Applied Biosystems (Foster City, Calif.). […]

INS-1 832/3 cells [2] = assay: miRNA expression profiling of GLP-1 treated INS-1 832/3 cells (SYBR green qPCR); type: cell-based, rat; conditions: 50 nM GLP-1 for 24 hours, 16 mM glucose
Experimental: Glucagon like peptide-1 (GLP-1) exerts pleiotropic effects on pancreatic β-cell function. GLP-1 potentiates glucose-dependent insulin secretion (GDIS) in pancreatic β-cells. Chronic administration of GLP-1 also promotes insulin synthesis as well as β-cell proliferation and neogenesis, at least in animal models. The detailed underlying mechanism remains to be fully understood. […] The expression levels of 250 microRNAs in INS-1 832/3 cell cultured in the presence or absence of 50 nM GLP-1 for 24 hours were compared using quantitative reverse transcription polymerase chain reaction (RT-PCR) method.
For GLP-1 treatment, GLP-1 (7-37) amide (ABCHEM) was added in the media in the presence of 16 mM glucose for 24 hours.
For microRNA profiling, total RNA was extracted from INS-1 832/3 cells with TRIZOL reagent (Invitrogen, Carlsbad, Calif.). A total of 250 miRNA species were determined by SYBR green quantitative PCR (qPCR) method at Rossetta Inpharmatics (Seattle, Wash.). Quantitative PCR is a method used to detect relative or absolute gene expression level. All qPCR involves the use of fluorescence to detect the threshold cycle (Ct) during PCR when the level of fluorescence gives signal over the background and is in the linear portion of the amplified curve. […] In this example, the Ct value data was calculated into copy number per 10 pg total RNA using the standard curve method. […]

rat pancreatic islets = assay: miRNA expression in isolated rat islets (TAQMAN); type: cell-based; conditions: 50 nM GLP-1, 11 mM glucose, 24 hours
Experimental: INS-1 832/3 and 832/13 cells were maintained in RPMI 1640 with 10% FBS and 11 mM glucose. For GLP-1 treatment, GLP-1 (7-37) amide (ABCHEM) was added in the media in the presence of 16 mM glucose for 24 hours. Total RNA was extracted with TRIZOL as in Example 1. Rat islet isolation and treatment was as follows. Pancreatic islets of Langerhans were isolated from the pancreas of normal Sprague-Dawley rats (Charles River, Ind.) by collagenase digestion and discontinuous Ficoll gradient separation (15). Islets were cultured for 2 hours in RPMI 1640 medium with 11 mM glucose for recovery from the isolation process. Then 100-200 islets were treated with 50 nM GLP-1 in the media with 11 mM glucose for 24 hours. RNA was extracted with TRIZOL as in Example 1 for quantification of microRNA species.
To verify that GLP-1 mediated miR-212 and miR-132 expression changes are of biological relevance, we analyzed their expression in freshly isolated rat islets treated with GLP-1. Pancreatic islets of Langerhans were isolated from the pancreas of normal Sprague-Dawley rats (Charles River, Ind.) by collagenase digestion and discontinuous Ficoll gradient separation. Islets were cultured for two hours in RPMI 1640 medium with 11 mM glucose for recovery from the isolation process. Then 100 to 200 islets were treated with 50 nM GLP-1 in the media with 11 mM glucose for 24 hours. RNA was extracted with TRIZOL reagent/ethanol precipitation followed by quantification of miRNA species. […] The regulation of miR-132 and miR-212 expression by GLP-1 was confirmed in rat pancreatic islets.

Substance: GLP-1 (7-37) amide
- miR-132 in the medium compared to vehicle (INS-1 832/3 cells [1]): remained unchanged
- miR-212 in the medium compared to vehicle (INS-1 832/3 cells [1]): remained unchanged
- expression of miR-375, miR-9 and miR-124a (INS-1 832/3 cells [2]): no significant changes
- miR-132 expression level increased (rat pancreatic islets): 2 fold
- miR-212 expression level increased (rat pancreatic islets): 2 fold
- regulation of miR-375 and miR-217 expression (rat pancreatic islets): Neither miR-375 nor miR-217 was significantly regulated
